IC50 and MIC90 data for eight molecules are collected here from article PMC7931078 (Molecules, 2021).

Assay type in all cases: cell-based
For assay [1], the system named is HEK293 cells. Briefly: In vitro cytotoxicity assay. The following applies: Homo sapiens, HEK293, read-out: IC50 HEK293.
Assay [2] deals with Mycobacterium tuberculosis pMSp12::GFP. Briefly: microbe, parasite or virus in culture.
Assay [3] has as its system Trypanosoma brucei brucei 427 trypomastigotes. Kind of assay: In vitro anti-trypanosomal assay. The following applies: Trypanosoma brucei, 24 h, 427 strain, read-out: IC50 T. b. brucei. As for the experimental part:
Trypanosoma brucei brucei 427 trypomastigotes were cultured in iscove’s modified Dulbecco’s medium (IMDM; Lonza, Basel, Switzerland) supplemented with 10% fetal calf serum, HMI-9 supplement, hypoxanthine and penicillin/streptomycin at 37 °C in a 5% CO2 incubator. Serial dilutions of test compounds were incubated with the parasites in 96-well plates for 24 h and residual parasite viability in the wells determined as previously reported.

In assay [4] the test system is 3D7 strain of Plasmodium falciparum. Kind of assay: In vitro antiplasmodial assay (pLDH).
[5] abbreviates: Mycobacterium tuberculosis, H37RV, 336 h.
Where [6] appears, read: Plasmodium falciparum, 3D7, 48 h, read-out: IC50 Pf 3D7, chloroquine sensitive strain 3D7, 48 h, pLDH.

SMILES strings stand for the structures. ≈ marks a conversion by molar mass, not a printed value. Like-named read-outs stand apart in the source and are kept apart here.

As for `CCOC(=O)c1cn(CC)c2ccc(Cn3cnc4c3c(=O)n(C)c(=O)n4C)cc2c1=O` [Compound 3a, Ethyl 6-((1,3-dimethyl-2,6-dioxo-1,2,3,6-tetrahydro-7H-purin-7-yl)methyl)-1-ethyl-4-oxo-1,4-dihydroquinolone-3-carboxylate], the values for the half-maximal inhibitory concentration (IC50) in assay [1], in assay [3] and in assay [4] (setting [6]) were above 32 µg/mL, above 20 µM and above 20 µM, respectively. The MIC90 in assay [2] and in assay [2] (setting [5]) was above 125 µM throughout.
For the molecule `CCOC(=O)c1cn(Cc2ccccc2)c2ccc(Cn3cnc4c3c(=O)n(C)c(=O)n4C)cc2c1=O` [Compound 3c, Ethyl 1-benzyl-6-((1,3-dimethyl-2,6-dioxo-1,2,3,6-tetrahydro-7H-purin-7-yl)methyl)-4-oxo-1,4-dihydroquinolone-3-carboxylate], the figures for the IC50 in assay [1], in assay [3] and in assay [4] (setting [6]) were above 32 µg/mL, 14.5 µM and above 20 µM, respectively. The molecule also returned an MIC90 in assay [2] (setting [5]) above 125 µM.
The like results for `CCOC(=O)c1cn(Cc2ccc(Br)cc2)c2ccc(Cn3cnc4c3c(=O)n(C)c(=O)n4C)cc2c1=O` [Compound 3d, Ethyl 1-(4-bromobenzyl)-6-((1,3-dimethyl-2,6-dioxo-1,2,3,6-tetrahydro-7H-purin-7-yl)methyl)-4-oxo-1,4-dihydroquinolone-3-carboxylate] were, in that order, above 32 µg/mL, 21.6 µM, 13.6 µM and 15.6 µM (≈ 9.02 µg/mL).
In the case of `CCn1cc(C(=O)NCCNCCO)c(=O)c2cc(Cn3cnc4c3c(=O)n(C)c(=O)n4C)ccc21` [Compound 4a, 6-((1,3-Dimethyl-2,6-dioxo-1,2,3,6-tetrahydro-7H-purin-7-yl)methyl)-1-ethyl-N-(2-((2-hydroxyethyl)amino)ethyl)-4-oxo-1,4-dihydroquinolone-3-carboxamide], the IC50 was above 32 µg/mL in assay [1], above 20 µM in assay [3] and above 20 µM in assay [4] (setting [6]). The MIC90 in assay [2] and in assay [2] (setting [5]) was above 125 µM throughout.
On to `CCn1cc(C(=O)NCCOCCO)c(=O)c2cc(Cn3cnc4c3c(=O)n(C)c(=O)n4C)ccc21` [Compound 4b, 6-((1,3-Dimethyl-2,6-dioxo-1,2,3,6-tetrahydro-7H-purin-7-yl)methyl)-1-ethyl-N-(2-(2-hydroxyethoxy)ethyl)-4-oxo-1,4-dihydroquinolone-3-carboxamide], for which the IC50 was above 32 µg/mL in assay [1], above 20 µM in assay [3] and above 20 µM in assay [4] (setting [6]). In assay [2] (setting [5]), this molecule came in with an MIC90 above 125 µM.
With `Cn1c(=O)c2c(ncn2Cc2ccc3c(c2)c(=O)c(C(=O)NCCNCCO)cn3Cc2ccccc2)n(C)c1=O` [Compound 4d, 1-Benzyl-6-((1,3-dimethyl-2,6-dioxo-1,2,3,6-tetrahydro-7H-purin-7-yl)methyl)-N-(2-((2-hydroxyethyl)amino)ethyl)-4-oxo-1,4-dihydroquinolone-3-carboxamide], the concentration for half-maximal inhibition (IC50) in assay [1] was above 32 µg/mL; in assay [3], above 20 µM; in assay [4] (setting [6]), at least 25 µM; in assay [4] (read-out: IC50 Pf 3D7, chloroquine sensitive strain 3D7, 48 h, pLDH), above 20 µM. This molecule also yielded an MIC90 in assay [2] (setting [5]) of 7.9 µM (≈ 4.41 µg/mL).
Take `Cn1c(=O)c2c(ncn2Cc2ccc3c(c2)c(=O)c(C(=O)NCCNCCO)cn3Cc2ccc(Br)cc2)n(C)c1=O` [Compound 4g, 1-(4-Bromobenzyl)-6-((1,3-dimethyl-2,6-dioxo-1,2,3,6-tetrahydro-7H-purin-7-yl)methyl)-N-(2-((2-hydroxyethyl)amino)ethyl)-4-oxo-1,4-dihydroquinolone-3-carboxamide]: the IC50 in assay [1] is above 32 µg/mL; in assay [3], above 20 µM. In addition, the MIC90 in assay [2] (setting [5]) was determined as 7.9 µM (≈ 5.03 µg/mL).
For the molecule `CCOC(=O)c1cn(CC)c2ccc(OCc3ccc(C(F)(F)F)cc3)cc2c1=O` [Compound 7a, Ethyl 1-ethyl-4-oxo-6-((4-(trifluoromethyl)benzyl)oxy)-1,4-dihydroquinolone-3-carboxylate], the IC50 is above 32 µg/mL in assay [1] and 18.5 µM in assay [3]. In addition, in assay [2] (setting [5]), the MIC90 is above 125 µM.
